Patent US7812022B2 (GlaxoSmithKline LLC, priority 2004, dated 2010)

What was measured:
ErbB2 or EGFR = target: T1, ErbB2 or EGFR; experiment: ErbB family substrate phosphorylation enzyme assay (HTRF), Method A or Method B; assay type: biochemical
T1 construct: enzymes purified from a baculovirus expression system; Reagent production was conducted essentially as described in Brignola, P. S., et al, (2002) J. Biol. Chem. 277(2): 1576-1585
Summary of the method: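 Baculovirus-expressed EGFR or ErbB2 (0.8 or 10 nM in enzyme mix) phosphorylates biotinylated Peptide C with 20 µM ATP and 0.8 µM peptide (substrate-mix levels), MnCl2, pH 7.5. Reaction ran 90 min at 20 °C with EDTA stop and HTRF anti-phosphotyrosine read. Method A: enzyme added last; Method B: 1 h enzyme–compound preincubation.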

[1] = tested on: BT474 and HN5 tumor cell lines; experiment: Methylene blue growth inhibition assay (cellular Method A); assay type: cell-based, Human; details: Homo sapiens, BT-474, 72 h, 3 days, read-out: Activity (Method): growth inhibition IC50 class
Summary of the method: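 Colo205, BT474 and HN5 cells in DMEM/10% FBS (BT474 10,000, HN5 3,000 cells/well) treated next day with compound in DMEM, 0.3% final DMSO, for 3 days at 37° C. Biomass stained with methylene blue, solubilized, read at OD 620; IC50 interpolated by nonlinear regression from % inhibition versus vehicle.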

Colo205 tumor cell lines = experiment: Methylene blue growth inhibition assay (cellular Method A), Colo205; assay type: cell-based, Human; details: Homo sapiens, COLO 205, 72 h, 3 days, read-out: Activity (Method): growth inhibition IC50 class
Protocol: Human breast (BT474) and head and neck (HN5) were cultured in low glucose DMEM (Life Technologies 12320-032) containing 10% fetal bovine serum (FBS). Human colon tumor cells (Colo205) were cultured in DMEM (Invitrogen, 10564) containing 10% FBS. The SV40 transformed human mammary epithelial cell line HB4a was transfected with either human H-ras cDNA (HB4a r4.2) or the human c-ErbB2 cDNA (HB4a c5.2). The HB4a clones were cultured in RPMI containing 10% FBS, insulin (5 g/mL), hydrocortisone (5 g/mL), supplemented with the selection agent hygromycin B (50 g/mL). All lines were grown in a humidified incubator at 37° C. in 95% air, 5% CO2. Cells were harvested using trypsin/EDTA, counted using a haemocytometer, and plated in 100 microliters of the appropriate media, at the following densities, in a 96-well tissue culture plate (Falcon 3075): BT474 10,000 cells/well, HN5 3,000 cells/well. The next day, compounds were diluted in DMEM containing […] gentamicin, at twice the final required concentration, from 10 mM stock solutions in DMSO. 100 microliters/well of these dilutions were added to the 100 microliters of media currently on the cell plates. Medium containing 0.6% DMSO was added to control wells. Compounds diluted in DMEM were added to all cell lines. The final concentration of DMSO in all wells was 0.3%. Cells were returned to the incubator (37° C., 10% CO2) for 3 days. Medium was then removed by aspiration. Cell biomass was estimated by staining cells with 90 microliters per well methylene blue (Sigma M9140, 0.5% in 1:1 ethanol:water), and incubation at rt for at least 30 minutes. Stain was removed, and the plates rinsed by immersion in deionized water and air-dried. To release stain from the cells 100 microliters of solubilization solution was added (1% N-lauroyl sarcosine, Sodium salt, Sigma L5125, in PBS), and plates were shaken gently for about 30 minutes. Optical density at 620 nm was measured on a microplate reader. Percent inhibition of cell growth was calculated relative to vehicle treated control wells. Concentration of compound that inhibits 50% of control cell growth (IC50) was interpolated using nonlinear regression (Levenberg-Marquardt) and the equation, y=Vmax*(1−(x/(K+x)))+Y2, where “K” was equal to the IC50. Method B: Celltiter Glo® Growth Inhibition Assays

[2] = Method B: enzyme mix pre-incubated with compound 1 hour at 20° C., started with substrate mix
[3] = Method A: substrate mix added first, reaction started with enzyme mix

Row | Compound | Activity (Method): pIC50 class against ErbB2 or EGFR (ErbB2 or EGFR; [2]) | IC50 [1] [nM] | IC50 (Colo205 tumor cell lines) [nM] | Activity (Method): pIC50 class against ErbB2 or EGFR (ErbB2 or EGFR; [3])
1 | CN(C)CCCNc1ccc(Nc2nccc(-c3c(-c4cccc(NC(=O)c5c(F)cccc5F)c4)nn4ccccc34)n2)cc1F [Example 41, N-[3-(3-{2-[(4-{[3-(dimethylamino)propyl]amino}-3-fluorophenyl)amino]-4-pyrimidinyl}pyrazolo[1,5-a]pyridin-2-yl)phenyl]-2,6-difluorobenzamide] | +++ (B) (at least one pIC50 measurement of greater than 7 against either ErbB2 or EGFR) | < 100 | 100 to 1000 | 
2 | CN1CCN(CCCNc2ccc(Nc3nccc(-c4c(-c5cccc(NC(=O)c6c(F)cccc6F)c5)nn5ccccc45)n3)cc2F)CC1 [Example 42, 2,6-Difluoro-N-[3-(3-{2-[(3-fluoro-4-{[3-(4-methyl-1-piperazinyl)propyl]amino}phenyl)amino]-4-pyrimidinyl}pyrazolo[1,5-a]pyridin-2-yl)phenyl]benzamide] | +++ (B) (at least one pIC50 measurement of greater than 7 against either ErbB2 or EGFR) | < 100 | > 1000 | 
3 | O=C(Nc1cccc(-c2nn3ccccc3c2-c2ccnc(Nc3ccccc3)n2)c1)c1cc(F)ccc1F [Example 43, 2,5-Difluoro-N-(3-{3-[2-(phenylamino)-4-pyrimidinyl]pyrazolo[1,5-a]pyridin-2-yl}phenyl)benzamide] |  | 100 to 1000 | > 1000 | +++ (A) (at least one pIC50 measurement of greater than 7 against either ErbB2 or EGFR)
4 | O=C(Nc1cccc(-c2nn3ccccc3c2-c2ccnc(Nc3cccc(-c4cnco4)c3)n2)c1)c1cc(F)ccc1F [Example 44, 2,5-Difluoro-N-{3-[3-(2-{[3-(1,3-oxazol-5-yl)phenyl]amino}-4-pyrimidinyl)pyrazolo[1,5-a]pyridin-2-yl]phenyl}benzamide] |  | < 100 | 100 to 1000 | +++ (A) (at least one pIC50 measurement of greater than 7 against either ErbB2 or EGFR)
5 | O=C(Nc1cccc(-c2nn3ccccc3c2-c2ccnc(Nc3ccc(N4CCOCC4)cc3)n2)c1)c1cc(F)ccc1F [Example 45, 2,5-Difluoro-N-{3-[3-(2-{[4-(4-morpholinyl)phenyl]amino}-4-pyrimidinyl)pyrazolo[1,5-a]pyridin-2-yl]phenyl}benzamide] |  | < 100 | 100 to 1000 | +++ (A) (at least one pIC50 measurement of greater than 7 against either ErbB2 or EGFR)
6 | COc1ccc(Nc2nccc(-c3c(-c4cccc(NC(=O)c5cc(F)ccc5F)c4)nn4ccccc34)n2)cc1F [Example 46, 2,5-Difluoro-N-{3-[3-(2-{[3-fluoro-4-(methyloxy)phenyl]amino}-4-pyrimidinyl)pyrazolo[1,5-a]pyridin-2-yl]phenyl}benzamide] | + (B) (no pIC50 measurement greater than 6 against either ErbB2 or EGFR) | > 1000 | > 1000 | 
7 | CC(=O)Nc1cccc(Nc2nccc(-c3c(-c4cccc(NC(=O)c5cc(F)ccc5F)c4)nn4ccccc34)n2)c1 [Example 47, N-{3-[3-(2-{[3-(acetylamino)phenyl]amino}-4-pyrimidinyl)pyrazolo[1,5-a]pyridin-2-yl]phenyl}-2,5-difluorobenzamide] |  | 100 to 1000 | > 1000 | +++ (A) (at least one pIC50 measurement of greater than 7 against either ErbB2 or EGFR)
8 | O=C(Nc1cccc(-c2nn3ccccc3c2-c2ccnc(Nc3ccc(N4CCCC4=O)cc3)n2)c1)c1cc(F)ccc1F [Example 50, 2,5-Difluoro-N-{3-[3-(2-{[4-(2-oxo-1-pyrrolidinyl)phenyl]amino}-4-pyrimidinyl)pyrazolo[1,5-a]pyridin-2-yl]phenyl}benzamide] |  | 100 to 1000 | > 1000 | +++ (A) (at least one pIC50 measurement of greater than 7 against either ErbB2 or EGFR)
9 | O=C(Nc1cccc(-c2nn3ccccc3c2-c2ccnc(Nc3cccc(CCN4CCOCC4)c3)n2)c1)c1c(F)cccc1F [Example 54, 2,6-Difluoro-N-(3-{3-[2-({3-[2-(4-morpholinyl)ethyl]-phenyl}amino)-4-pyrimidinyl]pyrazolo[1,5-a]pyridin-2-yl}phenyl)benzamide] |  | < 100 | 100 to 1000 | +++ (A) (at least one pIC50 measurement of greater than 7 against either ErbB2 or EGFR)
10 | O=C(Nc1cccc(-c2nn3ccccc3c2-c2ccnc(Nc3cccc(CCCN4CCOCC4)c3)n2)c1)c1c(F)cccc1F [Example 55, 2,6-Difluoro-N-(3-{3-[2-({3-[3-(4-morpholinyl)propyl]-phenyl}amino)-4-pyrimidinyl]pyrazolo[1,5-a]pyridin-2-yl}phenyl)benzamide] | +++ (B) (at least one pIC50 measurement of greater than 7 against either ErbB2 or EGFR) | < 100 | 100 to 1000 | 
11 | O=C(Nc1cccc(-c2nn3ccccc3c2-c2ccnc(Nc3ccc(CCN4CCOCC4)cc3)n2)c1)c1c(F)cccc1F [Example 56, 2,6-Difluoro-N-(3-{3-[2-({4-[2-(4-morpholinyl)ethyl]-phenyl}amino)-4-pyrimidinyl]pyrazolo[1,5-a]pyridin-2-yl}phenyl)benzamide] | +++ (B) (at least one pIC50 measurement of greater than 7 against either ErbB2 or EGFR) | < 100 | 100 to 1000 | 
12 | CN1CCN(Cc2cccc(Nc3nccc(-c4c(-c5cccc(NC(=O)c6c(F)cccc6F)c5)nn5ccccc45)n3)c2)CC1 [Example 57, 2,6-Difluoro-N-(3-{3-[2-({3-[(4-methyl-1-piperazinyl)-methyl]phenyl}amino)-4-pyrimidinyl]pyrazolo[1,5-a]pyridin-2-yl}phenyl)benzamide] | +++ (B) (at least one pIC50 measurement of greater than 7 against either ErbB2 or EGFR) | < 100 | 100 to 1000 | 
13 | O=C(Nc1cccc(-c2nn3ccccc3c2-c2ccnc(Nc3cccc(S(=O)(=O)CCO)c3)n2)c1)c1c(F)cccc1F [Example 58, 2,6-Difluoro-N-(3-{3-[2-({3-[(2-hydroxyethyl)sulfonyl]-phenyl}amino)-4-pyrimidinyl]pyrazolo[1,5-a]pyridin-2-yl}phenyl)benzamide] | +++ (B) (at least one pIC50 measurement of greater than 7 against either ErbB2 or EGFR) | < 100 | > 1000 | 
14 | O=C(Nc1cccc(-c2nn3ccccc3c2-c2ccnc(Nc3cccc(O)c3)n2)c1)c1c(F)cccc1F [Example 59, 2,6-Difluoro-N-[3-(3-{2-[(3-hydroxyphenyl)amino]-4-pyrimidinyl}pyrazolo[1,5-a]pyridin-2-yl)phenyl]benzamide] | +++ (B) (at least one pIC50 measurement of greater than 7 against either ErbB2 or EGFR) | < 100 | > 1000 | 
15 | O=C(Nc1cccc(-c2nn3ccccc3c2-c2ccnc(Nc3cccc(OCCN4CCOCC4)c3)n2)c1)c1c(F)cccc1F [Example 60, 2,6-Difluoro-N-[3-(3-{2-[(3-{[2-(4-morpholinyl)ethyl]-oxy}phenyl)amino]-4-pyrimidinyl}pyrazolo[1,5-a]pyridin-2-yl)phenyl]benzamide] | +++ (B) (at least one pIC50 measurement of greater than 7 against either ErbB2 or EGFR) | < 100 | 100 to 1000 | 
